In patent US4501755A, “Isoflavones useful as anti-inflammatory agents” (Pennwalt Corporation, priority 1982, dated 1985):
Where a name gives a salt, the structure may show the parent alone.

System: carrageenan-induced paw edemas of test rats
Test: carrageenan-induced paw edema (anti-inflammatory activity)
Format: in vivo, Male, Sprague-Dawley rats
Conditions: 50 mg/kg p.o.; carrageenan injected 2 hours after dosing, paw volume measured 3 hours later; control group paw volume as 100% edema
Protocol: These properties were determined by carrageenan-induced paw edemas of test rats. Male, Sprague-Dawley rats (Blue Spruce Farm) were ordered at 124-140 g, housed for one week, and allowed food and water ad libitum. At the time of the experiments, only rats weighing 160-200 g were used.
All compounds were dissolved or suspended in a 0.5% water solution of Methocel and orally administered to groups of six rats each. Control rats received Methocel only. Two hours later, paw edema was induced by subcutaneous injection into the plantar surface of the right hind paw of 0.1 ml of a 1.0% homogenized suspension of carrageenan.
Immediately, the volume of the paw was measured by immersing it in mercury to above the lateral mateolus. The mercury in a glass cylinder 22 mm in diameter and 60 mm deep was connected at the bottom of the cylinder by a column of water to a Statham transducer (model P23BB), range 0-5 cm of mercury pressure. The volume was recorded electronically on a Beckman recorder, R511. Three hours later, the inflamed paw volume was measured again, and the change in volume was recorded for each group. The percent inhibition of edema was calculated using the control group paw volume as 100% edema, i.e.,

Row | SMILES | % Inhibition of Edema [%]
1 | CC(C)NCC(O)COc1ccc2c(=O)c(-c3ccccc3)coc2c1 (stereo not drawn) [Example 1, 7-(2-hydroxy-3-isopropylaminopropoxy)-3-phenylchromone hydrochloride] | 45
2 | CC(C)NCC(O)COc1ccc2c(=O)c(-c3ccccc3)c(C(F)(F)F)oc2c1 (stereo not drawn) [Example 4, 7-(2-hydroxy-3-isopropylaminopropoxy)-2-trifluoromethylisoflavone hydrochloride] | 31
3 | CC(C)NCC(O)COc1ccc2c(=O)c(-c3ccccc3)c(C(C)C)oc2c1 (stereo not drawn) [Example 5, 7-(2-hydroxy-3-isopropylaminopropoxy)-2-isopropylisoflavone maleate] | 29
